Reference: patent US7468369B2, “Sulfonyl pyrrolidines, method for producing the same and their use as drugs” (Sanofi-Aventis, priority 2005, dated 2008)
Counter-ions that a name gives are not always drawn.

What follows are compounds tested on human ABCA1 promoter (assay: ABCA1 promoter test (luciferase reporter in stably transfected THP1 cell line)). Settings: Homo sapiens, THP-1, 24 h; read-out: E50 ABCA1.
Format: cell-based
Summary of the method: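 PMA-differentiated THP1 macrophages stably carrying a 3.2 kb human ABCA1 promoter-luciferase construct, treated 24 h at 37° C with 11 concentrations ([…] to 330 pM, DMSO <0.1%). Luciferase read by luminescence after lysis; EC50 from dose-response plots.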

Row | SMILES | EC50 [nM]
1 | Cc1ccc(C)c(N2CCN(C(=O)[C@H]3CN(S(=O)(=O)c4cccs4)C[C@H]3c3ccccc3)CC2)c1 (racemic) [Example 117, [4-(2,5-Dimethylphenyl)piperazin-1-yl]-[3,4-cis-4-phenyl-1-(thiophene-2-sulfonyl)pyrrolidin-3-yl]methanone] | 291

Same assay, conditions: Homo sapiens, THP-1; ABCA1 reporter cell line (THP1, PMA-differentiated), 24 h incubation, luciferase chemiluminescence; read-out: E50 ABCA1

Row | EC50 [nM] | SMILES
2 | 1850 | Cc1cccc([C@@H]2CN(S(=O)(=O)c3c(C)noc3C)C[C@H]2C(=O)N2CCN(c3cc(C)ccc3C)CC2)c1 [Example 101, [1-(3,5-Dimethylisoxazole-4-sulfonyl)-3,4-trans-4-m-tolylpyrrolidin-3-yl]-[4-(2,5-dimethylphenyl)piperazin-1-yl]methanone trifluoroacetate]
3 | 7340 | COC(=O)c1cc(C)c(S(=O)(=O)N2C[C@@H](C(=O)N3CCN(c4cc(C)ccc4C)CC3)[C@H](c3ccccc3)C2)s1 (racemic) [Example 50, Methyl 5-{3,4-trans-3-[4-(2,5-dimethylphenyl)piperazine-1-carbonyl]-4-phenylpyrrolidine-1-sulfonyl}-4-methylthiophene-2-carboxylate]
4 | 3000 | COc1ccc(OC)c(N2CCN(C(=O)[C@@H]3CN(S(=O)(=O)c4cccc5nonc45)C[C@H]3c3ccccc3)CC2)c1 [Example 83, [1-(Benzo[1,2,5]oxadiazole-4-sulfonyl)-3,4-trans-4-phenylpyrrolidin-3-yl]-[4-1-(2,5-dimethoxyphenyl)piperazin-1-yl]methanone trifluoroacetate]
5 | 432 | O=C([C@@H]1CN(S(=O)(=O)c2cccs2)C[C@H]1c1ccccc1)N1CCN(c2cc(Cl)ccc2Cl)CC1 [Example 66, [4-(2,5-Dichlorophenyl)piperazin-1-yl]-[3,4-trans-4-phenyl-1-(thiophene-2-sulfonyl)pyrrolidin-3-yl]methanone trifluoroacetate]
6 | 1580 | COc1ccc(S(=O)(=O)N2C[C@@H](C(=O)N3CCN(c4cc(OC)ccc4OC)CC3)[C@H](c3ccccc3)C2)cc1 [Example 79, [4-(2,5-Dimethoxyphenyl)piperazin-1-yl]-[1-(4-methoxybenzenesulfonyl)-3,4-trans-4-phenylpyrrolidin-3-yl]methanone trifluoroacetate]
7 | 1820 | COc1ccc(OC)c(N2CCN(C(=O)[C@@H]3CN(S(=O)(=O)c4c(C)noc4C)C[C@H]3c3ccccc3)CC2)c1 [Example 81]
8 | 2340 | COc1cccc(S(=O)(=O)N2C[C@@H](C)[C@H](C(=O)N3CCN(c4cc(C)ccc4C)CC3)C2)c1 [Example 91, [3,4-trans-4-(2,5-Dimethylphenyl)piperazin-1-yl]-[1-(3-methoxybenzene-sulfonyl)-4-methylpyrrolidin-3-yl]methanone trifluoroacetate]
9 | 1160 | COc1ccc(N2CCN(C(=O)[C@@H]3CN(S(=O)(=O)c4cc(Br)c(Br)s4)C[C@H]3c3ccccc3)CC2)cc1 (racemic) [Example 59]
10 | 2770 | Cc1ccc(C)c(N2CCN(C(=O)[C@@H]3CN(S(=O)(=O)c4sc5ccc(Cl)cc5c4C)C[C@H]3c3ccccc3)CC2)c1 (racemic) [Example 51, [1-(5-Chloro-3-methylbenzo[b]thiophene-2-sulfonyl)-3,4-trans-4-phenyl-pyrrolidin-3-yl]-[4-(2,5-dimethylphenyl)piperazin-1-yl]methanone]
11 | 2720 | COc1cccc(S(=O)(=O)N2C[C@@H](C(=O)N3CCN(c4cc(C)ccc4C)CC3)[C@H](c3ccc4c(c3)OCO4)C2)c1 [Example 88, [3,4-trans-4-Benzo[1,3]dioxol-5-yl-1-(3-methoxybenzenesulfonyl)pyrrolidin-3-yl]-[4-(2,5-dimethylphenyl)piperazin-1-yl]methanone trifluoroacetate]
12 | 3150 | COc1ccc(OC)c(N2CCN(C(=O)[C@@H]3CN(S(=O)(=O)c4cccc(C)c4)C[C@H]3c3ccccc3)CC2)c1 [Example 80, [4-2,5-Dimethoxyphenyl)piperazin-1-yl]-[3,4-trans-4-phenyl-1-(toluene-3-sulfonyl)pyrrolidin-3-yl]methanone trifluoroacetate]
13 | 330 | COc1cccc(S(=O)(=O)N2C[C@@H](C(=O)N3CCN(c4cc(C)ccc4C)CC3)[C@H](c3ccccc3)C2)c1 (racemic) [Example 69, [4-(2,5-Dimethylphenyl)piperazin-1-yl]-[1-(3-methoxybenzenesulfonyl)-3,4-trans-4-phenylpyrrolidin-3-yl]methanone]
14 | 16800 | Cc1ccc(C)c(N2CCN(C(=O)[C@@H]3CN(S(=O)(=O)c4c(C)noc4C)C[C@H]3C)CC2)c1 [Example 90, [[1-(3,5-Dimethylisoxazole-4-sulfonyl)-3,4-trans-4-methylpyrrolidin-3-yl]-[4-(2,5-dimethylphenyl)piperazin-1-yl]methanone trifluoroacetate]
15 | 915 | Cc1ccc(C)c(N2CCN(C(=O)[C@@H]3CN(S(=O)(=O)C(C)C)C[C@H]3c3ccccc3)CC2)c1 [Example 70, [4-(2,5-Dimethylphenyl)piperazin-1-yl]-[3,4-trans-4-phenyl-1-(propan-2-sulfonyl)pyrrolidin-3-yl]methanone trifluoroacetate]
16 | 707 | COc1cccc(S(=O)(=O)N2C[C@@H](C(=O)N3CCN(c4cc(C)ccc4C)CC3)[C@H](c3ccccc3C)C2)c1 [Example 99, [4-(2,5-Dimethylphenyl)piperazin-1-yl]-[1-(3-methoxybenzenesulfonyl)-3,4-trans-4-o-tolylpyrrolidin-3-yl]methanone trifluoroacetate]
17 | 869 | Cc1ccc(C)c(N2CCN(C(=O)[C@@H]3CN(S(=O)(=O)c4cccc5nonc45)C[C@H]3c3ccccc3)CC2)c1 [Example 68, [1-(Benzene[1,2,5-oxadiazol-4-sulfonyl)-3,4-trans-4-phenylpyrrolidin-3-yl]-[4-(2,5-dimethylphenyl)piperazin-1-yl]methanone trifluoroacetate]
18 | 2190 | Cc1ccc(C)c(N2CCN(C(=O)[C@@H]3CN(S(=O)(=O)c4cccs4)C[C@H]3c3ccccc3)CC2)c1 (racemic) [Example 67, [4-(2,5-Dimethylphenyl)piperazin-1-yl]-[3,4-trans-4-phenyl-1-(thiophene-2-sulfonyl)pyrrolidin-3-yl]methanone]
19 | 4630 | Cc1cccc(N2CCN(C(=O)[C@@H]3CN(S(=O)(=O)c4ccc(Cl)s4)C[C@H]3c3ccccc3)CC2)c1C (racemic) [Example 54, [1-(5-Chlorothiophene-2-sulfonyl)-3,4-trans-4-phenylpyrrolidin-3-yl]-[4-(2,3-dimethylphenyl)piperazin-1-yl]methanone]
20 | 4620 | Cc1ccc(N2CCN(C(=O)[C@@H]3CN(S(=O)(=O)c4cc(Cl)c(Cl)s4)C[C@H]3c3ccccc3)CC2)cc1C (racemic) [Example 45]
21 | 980 | COc1ccc(S(=O)(=O)N2C[C@@H](C(=O)N3CCN(c4cc(Cl)ccc4Cl)CC3)[C@H](c3ccccc3)C2)cc1 [Example 75, [4-(2,5-Dichlorophenyl)piperazin-1-yl]-[1-(4-methoxybenzenesulfonyl)-3,4-trans-4-phenylpyrrolidin-3-yl]methanone trifluoroacetate]
22 | 3220 | O=C([C@@H]1CN(S(=O)(=O)c2cccs2)C[C@H]1c1ccccc1)N1CCN(c2cccc(C(F)(F)F)c2)CC1 (racemic) [Example 30, [3,4-trans-4-Phenyl-1-(thiophene-2-sulfonyl)pyrrolidin-3-yl]-[4-(3-trifluoromethylphenyl)piperazin-1-yl]methanone]
23 | 1950 | Cc1ccc(C)c(N2CCN(C(=O)[C@@H]3CN(S(=O)(=O)c4cc(Cl)c(Cl)s4)C[C@H]3c3ccccc3)CC2)c1 (racemic) [Example 49, [1-(4,5-Dichlorothiophene-2-sulfonyl)-3,4-trans-4-phenylpyrrolidin-3-yl]-[4-(2,5-dimethylphenyl)piperazin-1-yl]methanone]
